Values quoted from earlier work, collected in PMC4112557 (Bioconjugate Chemistry, 2014).
Where a SMILES comes first, the peptide text is derived from it.

Molecular target: PSMA (Homo sapiens, UniProt Q04609)
Settings: hydrolysis of NAAG in the amplex red assay

PSMA, sequence (Q04609 whole entry): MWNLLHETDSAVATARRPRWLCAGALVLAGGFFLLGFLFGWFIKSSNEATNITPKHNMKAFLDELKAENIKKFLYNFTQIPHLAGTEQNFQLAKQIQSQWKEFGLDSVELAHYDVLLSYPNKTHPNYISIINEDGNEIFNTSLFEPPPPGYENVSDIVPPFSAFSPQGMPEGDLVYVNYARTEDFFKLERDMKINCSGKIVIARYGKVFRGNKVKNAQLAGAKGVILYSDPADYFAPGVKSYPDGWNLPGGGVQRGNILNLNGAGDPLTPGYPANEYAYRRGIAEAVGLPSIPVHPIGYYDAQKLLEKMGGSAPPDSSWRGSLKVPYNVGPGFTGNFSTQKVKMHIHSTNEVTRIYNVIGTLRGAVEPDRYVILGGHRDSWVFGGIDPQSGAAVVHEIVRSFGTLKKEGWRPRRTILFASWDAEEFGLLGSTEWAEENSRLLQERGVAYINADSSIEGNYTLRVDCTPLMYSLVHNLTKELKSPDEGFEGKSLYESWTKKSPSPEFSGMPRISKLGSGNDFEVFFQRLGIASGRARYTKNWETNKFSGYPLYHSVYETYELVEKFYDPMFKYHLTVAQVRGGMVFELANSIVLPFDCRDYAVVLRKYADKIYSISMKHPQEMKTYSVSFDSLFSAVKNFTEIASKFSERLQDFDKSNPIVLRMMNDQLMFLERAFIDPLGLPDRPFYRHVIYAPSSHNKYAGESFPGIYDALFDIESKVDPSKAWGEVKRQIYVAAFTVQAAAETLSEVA

- Km: 1150 nM
Compound: CC(=O)N[C@@H](CC(=O)O)C(=O)N[C@@H](CCC(=O)O)C(=O)O [NAAG, N-acetylaspartylglutamic acid] (Ac-Asp-Glu-OH)
